Laboratory results reported in PubChem BioAssay (NCI).
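Interpolation was linear, between the two tested concentrations surrounding the appropriate level; five concentrations were tested over 48 hours in 96-well plates. GI50 = concentration required for 50% inhibition of growth. At the TGI there is no net growth.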

Key:
Experiment in all cases: NCI tumour cell line growth inhibition, 48 h
[1] = test system: 786-0 renal
[2] = test system: A498 renal
[3] = test system: A549 NSCLC
[4] = test system: ACHN renal
[5] = test system: CAKI-1 renal
[6] = test system: CCRF-CEM leukemia
[7] = test system: COLO 205 colon
[8] = test system: DU-145 prostate
[9] = test system: EKVX NSCLC
[10] = test system: HCC-2998 colon
[11] = test system: HCT-116 colon
[12] = test system: HCT-15 colon
[13] = test system: HL-60(TB) leukemia
[14] = test system: HOP-62 NSCLC
[15] = test system: HOP-92 NSCLC
[16] = test system: HT29 colon
[17] = test system: IGROV1 ovarian
[18] = test system: K-562 leukemia
[19] = test system: KM12 colon
[20] = test system: LOX IMVI melanoma
[21] = test system: M14 melanoma
[22] = test system: MALME-3M melanoma
[23] = test system: MCF7 breast
[24] = test system: MDA-MB-231 breast
[25] = test system: MDA-MB-435
[26] = test system: MDA-N
[27] = test system: MOLT-4 leukemia
[28] = test system: NCI-H226 lung
[29] = test system: NCI-H23 lung
[30] = test system: NCI-H460 lung
[31] = test system: NCI-H522 lung
[32] = test system: NCI/ADR-RES ovarian
[33] = test system: OVCAR-3 ovarian
[34] = test system: OVCAR-4 ovarian
[35] = test system: OVCAR-5 ovarian
[36] = test system: OVCAR-8 ovarian
[37] = test system: PC-3 prostate
[38] = test system: RXF 393 renal
[39] = test system: SF-268 CNS
[40] = test system: SF-295 CNS
[41] = test system: SF-539 CNS
[42] = test system: SK-MEL-2 melanoma
[43] = test system: SK-MEL-28 melanoma
[44] = test system: SK-MEL-5 melanoma
[45] = test system: SK-OV-3 ovarian
[46] = test system: SN12C renal
[47] = test system: SNB-19 CNS
[48] = test system: SNB-75 CNS
[49] = test system: SR leukemia
[50] = test system: SW-620 colon
[51] = test system: T-47D breast
[52] = test system: U251 CNS
[53] = test system: UACC-257 melanoma
[54] = test system: UACC-62 melanoma
[55] = test system: UO-31 renal
[56] = test system: HS 578T breast
[57] = test system: RPMI-8226 leukemia
[58] = test system: TK-10 renal
[59] = test system: BT-549 breast

O=C(O)C(O)C(O)C(O)C(O)C(=O)O (configuration not stated) was tested, and the TGI [1] was > 100 µM, the TGI [2] was > 100 µM and the TGI [3] was > 100 µM. For the same compound, the TGI [4] was > 100 µM, the TGI [5] was > 100 µM and the TGI [6] was > 100 µM. The TGI [7] was > 100 µM, the TGI [8] was > 100 µM and the TGI [9] was > 100 µM. For the same compound, the TGI [10] was > 100 µM, the TGI [11] was > 100 µM and the TGI [12] was > 100 µM. The TGI [13] was > 100 µM, the TGI [14] was > 100 µM and the TGI [15] was > 100 µM. For the same compound, the TGI [16] was > 100 µM, the TGI [17] was > 100 µM and the TGI [18] was > 100 µM. The TGI [19] was > 100 µM, the TGI [20] was > 100 µM and the TGI [21] was > 100 µM. The TGI [22] was > 100 µM, the TGI [23] was > 100 µM and the TGI [24] was > 100 µM. For the same compound, the TGI [25] was > 100 µM, the TGI [26] was > 100 µM and the TGI [27] was > 100 µM. The TGI [28] was > 100 µM, the TGI [29] was > 100 µM and the TGI [30] was > 100 µM. The TGI [31] was > 100 µM, the TGI [32] was > 100 µM and the TGI [33] was > 100 µM. For the same compound, the TGI [34] was > 100 µM, the TGI [35] was > 100 µM and the TGI [36] was > 100 µM. The TGI [37] was > 100 µM, the TGI [38] was > 100 µM and the TGI [39] was > 100 µM. For the same compound, the TGI [40] was > 100 µM, the TGI [41] was > 100 µM and the TGI [42] was > 100 µM. The TGI [43] was > 100 µM, the TGI [44] was > 100 µM and the TGI [45] was > 100 µM. The TGI [46] was > 100 µM, the TGI [47] was > 100 µM and the TGI [48] was > 100 µM. The TGI [49] was > 100 µM, the TGI [50] was > 100 µM and the TGI [51] was > 100 µM. For the same compound, the TGI [52] was > 100 µM, the TGI [53] was > 100 µM and the TGI [54] was > 100 µM. For the same compound, the TGI [55] was > 100 µM.
COc1cc(C(C[N+](=O)[O-])SC(C)=O)ccc1OCc1ccccc1 (configuration not stated) showed a TGI [1] of 3.74 µM, a TGI [2] of 15.4 µM and a TGI [3] of 25.4 µM. For the same compound, the TGI [4] was 24.7 µM, the TGI [5] was 27.7 µM and the TGI [6] was > 100 µM. It also gave a TGI [7] of 13 µM, a TGI [8] of 27.1 µM and a TGI [9] of 37.9 µM. It also gave a TGI [10] of 46.6 µM, a TGI [11] of 8.26 µM and a TGI [12] of 9.11 µM. For the same compound, the TGI [13] was 1.57 µM, the TGI [14] was 14.3 µM and the TGI [15] was 36.2 µM. The TGI [56] was 12.1 µM, the TGI [16] was > 20.9 µM and the TGI [17] was 7.36 µM. For the same compound, the TGI [18] was 5.45 µM, the TGI [19] was 14 µM and the TGI [20] was 3.35 µM. The TGI [21] was 11.2 µM, the TGI [22] was 17.5 µM and the TGI [23] was 10.7 µM. For the same compound, the TGI [24] was 13.3 µM, the TGI [25] was 10 µM and the TGI [26] was 8.54 µM. For the same compound, the TGI [27] was 5.52 µM, the TGI [28] was 18.1 µM and the TGI [29] was 12.3 µM. The TGI [30] was 25.1 µM, the TGI [31] was 13.9 µM and the TGI [32] was > 38.3 µM. For the same compound, the TGI [33] was 7.87 µM, the TGI [34] was 27.7 µM and the TGI [35] was 29.6 µM. The TGI [36] was 13.6 µM, the TGI [37] was 17.4 µM and the TGI [57] was 4.61 µM. The TGI [38] was 3.18 µM, the TGI [39] was > 100 µM and the TGI [40] was 10.3 µM. For the same compound, the TGI [41] was 4.87 µM, the TGI [42] was 23.4 µM and the TGI [43] was 6.79 µM. For the same compound, the TGI [44] was 21.9 µM, the TGI [45] was 29.6 µM and the TGI [46] was 15.7 µM. It also gave a TGI [47] of 20.9 µM, a TGI [48] of 32.4 µM and a TGI [49] of 4.86 µM. The TGI [50] was 10.6 µM, the TGI [51] was 54.5 µM and the TGI [58] was 14.7 µM. For the same compound, the TGI [52] was 22.7 µM, the TGI [53] was 10.5 µM and the TGI [54] was 8.68 µM. The TGI [55] was 10.3 µM.
For CCCCN=C(N)c1ccc(N2CCCN(c3ccc(C(N)=NCCCC)cc3)CC2)cc1, the GI50 [1] was > 74.6 µM, the TGI [1] was > 100 µM and the GI50 [2] was 0.529 µM. The TGI [2] was 30.3 µM, the GI50 [3] was 4.07 µM and the TGI [3] was > 100 µM. For the same compound, the GI50 [4] was > 21.9 µM, the TGI [4] was > 100 µM and the GI50 [59] was 14.4 µM. For the same compound, the TGI [59] was > 58.3 µM, the GI50 [5] was > 72.3 µM and the TGI [5] was > 100 µM. For the same compound, the GI50 [6] was 16.3 µM, the TGI [6] was > 100 µM and the GI50 [7] was 6.82 µM. The TGI [7] was > 100 µM, the GI50 [8] was 25.1 µM and the TGI [8] was > 100 µM. The GI50 [9] was 10.6 µM, the TGI [9] was > 100 µM and the GI50 [10] was 8.88 µM. The TGI [10] was 58.2 µM, the GI50 [11] was 21 µM and the TGI [11] was > 100 µM. The GI50 [12] was > 100 µM, the TGI [12] was > 100 µM and the TGI [13] was 0.159 µM. For the same compound, the GI50 [14] was 15.8 µM, the TGI [14] was > 90.1 µM and the GI50 [15] was 14.6 µM. The TGI [15] was > 84 µM, the GI50 [56] was 5.02 µM and the TGI [56] was > 90.7 µM. The GI50 [16] was 10.7 µM, the TGI [16] was > 59.7 µM and the GI50 [17] was 24.5 µM. The TGI [17] was > 85.9 µM, the GI50 [18] was 3.69 µM and the TGI [18] was > 100 µM. For the same compound, the GI50 [19] was 5.72 µM, the TGI [19] was 47.8 µM and the GI50 [20] was 22.5 µM. For the same compound, the TGI [20] was > 67.6 µM, the GI50 [21] was 43.1 µM and the TGI [21] was > 100 µM. For the same compound, the GI50 [22] was 1 µM, the TGI [22] was 26.2 µM and the GI50 [23] was 7.44 µM. For the same compound, the TGI [23] was > 100 µM, the GI50 [24] was 27.7 µM and the TGI [24] was > 100 µM. For the same compound, the GI50 [25] was 14.8 µM, the TGI [25] was > 96.6 µM and the GI50 [27] was 25.2 µM. For the same compound, the TGI [27] was > 100 µM, the GI50 [28] was 1.66 µM and the TGI [28] was 99.8 µM. The GI50 [29] was 5.67 µM, the TGI [29] was > 100 µM and the GI50 [30] was 4.15 µM. The TGI [30] was 97.6 µM, the GI50 [31] was 11.8 µM and the TGI [31] was > 100 µM. For the same compound, the GI50 [32] was > 100 µM, the TGI [32] was > 100 µM and the GI50 [33] was 8.73 µM. For the same compound, the TGI [33] was > 81.7 µM, the GI50 [34] was 83.1 µM and the TGI [34] was > 100 µM. For the same compound, the GI50 [35] was 45.7 µM, the TGI [35] was > 100 µM and the GI50 [36] was 14.1 µM. The TGI [36] was > 100 µM, the GI50 [37] was 11.5 µM and the TGI [37] was > 100 µM. For the same compound, the GI50 [57] was 5.37 µM, the TGI [57] was > 59.8 µM and the TGI [38] was > 68.3 µM. The GI50 [39] was 8.53 µM, the TGI [39] was > 100 µM and the GI50 [40] was 6.39 µM. The TGI [40] was 57.6 µM, the GI50 [41] was 7.34 µM and the TGI [41] was > 50.1 µM. For the same compound, the GI50 [42] was 12.3 µM, the TGI [42] was 44.6 µM and the GI50 [43] was 31.2 µM. For the same compound, the TGI [43] was > 100 µM, the GI50 [44] was 5.04 µM and the TGI [44] was 21.7 µM. For the same compound, the GI50 [45] was > 100 µM, the TGI [45] was > 100 µM and the GI50 [46] was 16.6 µM. For the same compound, the TGI [46] was > 100 µM, the GI50 [47] was > 21.4 µM and the TGI [47] was > 100 µM. The GI50 [48] was 6.29 µM, the TGI [48] was > 100 µM and the GI50 [49] was 1.36 µM. The TGI [49] was 4.44 µM, the GI50 [50] was 13.6 µM and the TGI [50] was > 100 µM. The GI50 [51] was 10.9 µM, the TGI [51] was > 100 µM and the GI50 [58] was 11.4 µM. For the same compound, the TGI [58] was > 84.7 µM, the GI50 [52] was 4.81 µM and the TGI [52] was > 100 µM. The GI50 [53] was 10 µM, the TGI [53] was 66.8 µM and the GI50 [54] was 7.58 µM. The TGI [54] was 27.5 µM, the GI50 [55] was > 66.1 µM and the TGI [55] was > 100 µM.
